In patent publication US20220056037A1 (SPV THERAPEUTICS INC., priority 2018, published 2022) one finds IC50 data, which are given here for three molecules.

Structures are written as SMILES. pIC50: −log10 of the molar value. Read-outs that look alike come from different tables or passages of the source.

Assay in all cases: Inhibition assay, microfluidic LabChip (Nanosyn)
Common to all, as to format: biochemical

For one experiment, the target named is CDK1/B (Homo sapiens, UniProt P06493). Conditions: Table 3a. The method, then: (§1) The reaction was terminated by the addition of EDTA. The plates were analyzed using a Caliper LabChip 3000.
(§2) Additional inhibition assays were performed as described above.

In another experiment the target is T1, CDK2-CYCLINA (Homo sapiens, UniProt P24941).
T1 construct: purchased Millipore
The method, then: as §1, §2

In a further experiment the target is T2, CDK4-CYCLIND1 (Homo sapiens, UniProt P11802).
T2 construct: purchased Invitrogen
Conditions: read-out: CDK4 CyclinD1 IC50. The method, then:
as §1, §2

The target of the next experiment is T3, CDK9-CYCLINT1 (Homo sapiens, UniProt P50750).
T3 construct: purchased Carna
The method, then:
as §1, §2

For the next experiment, the target named is CDK7 CyclinH (Homo sapiens, UniProt P50613). The method, then:
as §1, §2

Chain of CDK1/B (P06493 whole entry): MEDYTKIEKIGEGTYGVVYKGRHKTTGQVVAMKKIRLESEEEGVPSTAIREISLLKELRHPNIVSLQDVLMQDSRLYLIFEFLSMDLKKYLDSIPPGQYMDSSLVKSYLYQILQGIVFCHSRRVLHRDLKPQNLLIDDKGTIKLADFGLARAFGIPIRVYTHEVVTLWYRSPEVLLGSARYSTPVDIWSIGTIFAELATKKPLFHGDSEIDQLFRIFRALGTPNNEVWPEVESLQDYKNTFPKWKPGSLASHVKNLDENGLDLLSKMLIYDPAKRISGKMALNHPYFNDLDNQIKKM
Chain of CDK1/B (P14635 whole entry partner): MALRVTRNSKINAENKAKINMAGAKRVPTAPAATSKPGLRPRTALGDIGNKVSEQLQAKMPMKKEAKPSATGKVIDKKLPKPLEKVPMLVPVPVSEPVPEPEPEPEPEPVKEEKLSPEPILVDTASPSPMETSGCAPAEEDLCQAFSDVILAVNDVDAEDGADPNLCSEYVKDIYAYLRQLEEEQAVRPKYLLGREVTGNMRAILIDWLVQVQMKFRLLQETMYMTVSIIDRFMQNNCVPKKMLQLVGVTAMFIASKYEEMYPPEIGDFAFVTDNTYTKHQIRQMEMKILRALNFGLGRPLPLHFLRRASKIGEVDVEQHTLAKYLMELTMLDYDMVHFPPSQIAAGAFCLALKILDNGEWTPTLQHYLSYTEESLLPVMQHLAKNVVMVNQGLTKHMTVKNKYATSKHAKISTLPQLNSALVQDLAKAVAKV
Chain of CDK7 CyclinH (P50613 whole entry): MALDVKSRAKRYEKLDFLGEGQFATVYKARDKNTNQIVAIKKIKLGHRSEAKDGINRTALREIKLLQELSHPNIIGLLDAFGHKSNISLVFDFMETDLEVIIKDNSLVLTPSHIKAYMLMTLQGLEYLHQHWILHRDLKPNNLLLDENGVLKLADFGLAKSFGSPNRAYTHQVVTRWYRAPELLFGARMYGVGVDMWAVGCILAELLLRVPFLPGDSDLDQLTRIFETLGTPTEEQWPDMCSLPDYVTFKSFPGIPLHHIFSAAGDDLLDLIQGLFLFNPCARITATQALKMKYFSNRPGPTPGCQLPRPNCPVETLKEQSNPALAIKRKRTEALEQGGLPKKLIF
Chain of CDK7 CyclinH (P51946 whole entry partner): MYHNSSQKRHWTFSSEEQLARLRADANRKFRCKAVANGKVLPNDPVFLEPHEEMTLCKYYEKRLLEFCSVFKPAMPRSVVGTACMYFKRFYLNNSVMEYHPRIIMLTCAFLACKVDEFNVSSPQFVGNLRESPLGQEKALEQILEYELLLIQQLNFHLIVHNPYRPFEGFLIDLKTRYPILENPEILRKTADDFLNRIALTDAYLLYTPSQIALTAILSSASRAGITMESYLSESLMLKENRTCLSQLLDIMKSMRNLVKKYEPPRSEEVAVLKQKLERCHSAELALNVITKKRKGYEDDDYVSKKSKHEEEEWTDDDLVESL
Chain of CDK7 CyclinH (P51948 whole entry partner): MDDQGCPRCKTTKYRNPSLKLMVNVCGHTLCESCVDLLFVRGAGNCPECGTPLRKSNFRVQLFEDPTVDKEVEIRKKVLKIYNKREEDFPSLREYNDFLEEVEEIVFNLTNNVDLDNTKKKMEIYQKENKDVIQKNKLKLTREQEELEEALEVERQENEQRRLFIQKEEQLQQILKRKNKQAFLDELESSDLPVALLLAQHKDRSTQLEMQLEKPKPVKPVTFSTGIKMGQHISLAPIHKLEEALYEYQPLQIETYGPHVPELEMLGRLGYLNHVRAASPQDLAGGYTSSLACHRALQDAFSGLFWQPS
T3 sequence (P50750 whole entry): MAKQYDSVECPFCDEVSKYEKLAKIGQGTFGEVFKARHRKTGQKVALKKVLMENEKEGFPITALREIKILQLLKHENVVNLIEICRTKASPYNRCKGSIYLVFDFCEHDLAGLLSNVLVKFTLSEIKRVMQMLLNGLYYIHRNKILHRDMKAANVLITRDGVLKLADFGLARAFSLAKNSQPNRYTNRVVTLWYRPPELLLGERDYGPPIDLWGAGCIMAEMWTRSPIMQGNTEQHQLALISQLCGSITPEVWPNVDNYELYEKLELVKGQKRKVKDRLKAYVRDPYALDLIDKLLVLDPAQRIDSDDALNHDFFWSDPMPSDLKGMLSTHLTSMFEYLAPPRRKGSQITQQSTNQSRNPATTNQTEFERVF
T3 sequence (O60563 whole entry partner): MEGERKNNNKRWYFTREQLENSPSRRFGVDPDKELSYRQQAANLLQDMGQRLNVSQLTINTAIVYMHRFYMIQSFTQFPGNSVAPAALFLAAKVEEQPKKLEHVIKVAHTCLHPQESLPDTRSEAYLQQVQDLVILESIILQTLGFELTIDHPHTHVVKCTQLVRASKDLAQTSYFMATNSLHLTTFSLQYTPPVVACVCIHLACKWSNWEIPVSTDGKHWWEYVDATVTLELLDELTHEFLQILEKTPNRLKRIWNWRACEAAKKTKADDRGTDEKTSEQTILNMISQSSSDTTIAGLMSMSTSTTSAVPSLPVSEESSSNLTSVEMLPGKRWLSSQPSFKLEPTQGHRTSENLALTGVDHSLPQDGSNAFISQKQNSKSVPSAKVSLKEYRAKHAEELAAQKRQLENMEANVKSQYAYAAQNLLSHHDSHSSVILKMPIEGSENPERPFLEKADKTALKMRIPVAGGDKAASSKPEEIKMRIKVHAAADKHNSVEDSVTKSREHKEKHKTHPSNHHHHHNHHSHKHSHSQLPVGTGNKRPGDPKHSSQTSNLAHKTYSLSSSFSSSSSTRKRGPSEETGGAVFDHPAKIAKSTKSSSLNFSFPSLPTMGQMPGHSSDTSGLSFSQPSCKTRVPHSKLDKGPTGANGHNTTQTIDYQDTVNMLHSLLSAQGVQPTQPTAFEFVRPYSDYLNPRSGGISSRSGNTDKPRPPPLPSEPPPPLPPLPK
T2 sequence (P11802 whole entry): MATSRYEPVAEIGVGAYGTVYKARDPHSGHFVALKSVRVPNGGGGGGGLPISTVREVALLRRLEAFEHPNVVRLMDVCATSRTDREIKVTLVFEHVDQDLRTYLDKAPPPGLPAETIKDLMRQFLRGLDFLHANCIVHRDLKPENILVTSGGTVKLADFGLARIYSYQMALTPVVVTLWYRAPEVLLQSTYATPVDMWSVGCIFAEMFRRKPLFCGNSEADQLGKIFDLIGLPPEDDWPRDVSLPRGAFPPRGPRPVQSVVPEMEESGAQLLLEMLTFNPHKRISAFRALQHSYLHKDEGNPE
T2 sequence (P24385 whole entry partner): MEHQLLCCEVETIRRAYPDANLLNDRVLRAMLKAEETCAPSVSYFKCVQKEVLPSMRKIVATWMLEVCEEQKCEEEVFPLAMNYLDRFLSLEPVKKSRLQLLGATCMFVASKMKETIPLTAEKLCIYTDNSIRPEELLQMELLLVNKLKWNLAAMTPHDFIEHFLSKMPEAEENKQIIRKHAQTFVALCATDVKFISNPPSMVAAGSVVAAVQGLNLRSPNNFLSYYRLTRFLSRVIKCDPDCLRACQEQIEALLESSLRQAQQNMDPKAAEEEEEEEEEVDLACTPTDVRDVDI

Consider `CC1CCN(c2ccc(Nc3ncc4cc(C(=O)N(C)C)n(C56CC(C5)C6)c4n3)cc2)CC1` [Compound A91, 7-(bicyclo[1.1.1]pentan-1-yl)-N,N-dimethyl-2-((4-(4-methylpiperidin-1-yl)phenyl)amino)-7H-pyrrolo[2,3-d]pyrimidine-6-carboxamide], for which the pIC50 (usually −log10 of the IC50, conventionally taken in molar units) is 5.88 on CDK1/B; 6.16 at CDK2-CYCLINA (Table 3a); 6.16 against CDK2-CYCLINA (Table 3b); 7.59 on CDK4-CYCLIND1 (Table 3a); 7.59 at CDK4-CYCLIND1 (Table 3b); 8.15 at CDK9-CYCLINT1 (Table 3a). Further, the pIC50 on CDK7 CyclinH (Table 3a) and against CDK7 CyclinH (Table 3b) was 5.24 in each case.

For the molecule `Cc1cc(Nc2ncc3cc(C(=O)N(C)C)n(C45CC(C4)C5)c3n2)ccc1OCCN(C)C` [Compound A92, 7-(bicyclo[1.1.1]pentan-1-yl)-2-((4-(2-(dimethylamino)ethoxy)-3-methylphenyl)amino)-N,N-dimethyl-7H-pyrrolo[2,3-d]pyrimidine-6-carboxamide], the pIC50 is 6.21 against CDK1/B; 6.15 on CDK2-CYCLINA (Table 3a); 6.15 against CDK2-CYCLINA (Table 3b); 7.83 on CDK4-CYCLIND1 (Table 3a); 7.83 on CDK4-CYCLIND1 (Table 3b); over 8.49 against CDK9-CYCLINT1 (Table 3a). In addition, the pIC50 on CDK9-CYCLINT1 (Table 3b) was over 8.49; on CDK7 CyclinH (Table 3a), 5.58; against CDK7 CyclinH (Table 3b), 5.58.

In the case of `CN(C)CCOc1ccc(Nc2ncc3cc(C(=O)N(C)C)n(C45CC(C4)C5)c3n2)cc1F` [Compound A93, 7-(bicyclo[1.1.1]pentan-1-yl)-2-((4-(2-(dimethylamino)ethoxy)-3-fluorophenyl)amino)-N,N-dimethyl-7H-pyrrolo[2,3-d]pyrimidine-6-carboxamide], the pIC50 on CDK1/B is 6.18; against CDK2-CYCLINA (Table 3a), 6.13; on CDK2-CYCLINA (Table 3b), 6.13; at CDK4-CYCLIND1 (Table 3a) it was 8.16; at CDK4-CYCLIND1 (Table 3b) it was 8.16; at CDK9-CYCLINT1 (Table 3a), over 8.49. The pIC50 at CDK9-CYCLINT1 (Table 3b) was over 8.49; against CDK7 CyclinH (Table 3a) it was 5.67; at CDK7 CyclinH (Table 3b), 5.67.
